Assay [1] deals with Acetylcholinesterase (Electrophorus electricus, UniProt O42275).
Description: Inhibition of Electrophorus electricus AChE using acetylthiocholine iodide as substrate by spectroscopic Ellmans method
For the next assay, the target named is Cholinesterase (Homo sapiens, UniProt P06276).
Assay [2] addresses Acetylcholinesterase (Homo sapiens, UniProt P22303).
Description: Inhibition of recombinant human AChE using acetylthiocholine iodide as substrate by spectroscopic Ellmans method

Sequence of Cholinesterase (P06276 whole entry): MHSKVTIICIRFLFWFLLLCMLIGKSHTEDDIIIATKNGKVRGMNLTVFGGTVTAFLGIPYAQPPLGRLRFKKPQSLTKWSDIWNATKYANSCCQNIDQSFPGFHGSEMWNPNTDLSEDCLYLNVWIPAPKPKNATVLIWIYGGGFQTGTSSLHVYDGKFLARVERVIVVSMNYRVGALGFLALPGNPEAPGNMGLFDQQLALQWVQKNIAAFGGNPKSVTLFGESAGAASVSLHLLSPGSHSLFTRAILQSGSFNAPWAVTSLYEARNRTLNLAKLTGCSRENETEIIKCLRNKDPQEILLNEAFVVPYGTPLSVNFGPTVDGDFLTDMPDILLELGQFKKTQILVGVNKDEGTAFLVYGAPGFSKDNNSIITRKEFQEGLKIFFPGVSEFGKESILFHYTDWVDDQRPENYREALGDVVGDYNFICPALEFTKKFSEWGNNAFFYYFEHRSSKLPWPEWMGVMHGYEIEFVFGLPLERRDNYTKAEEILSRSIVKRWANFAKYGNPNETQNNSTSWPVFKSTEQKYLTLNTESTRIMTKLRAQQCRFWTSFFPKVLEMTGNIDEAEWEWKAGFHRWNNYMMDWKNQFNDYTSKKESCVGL
Sequence of Acetylcholinesterase (Homo sapiens, UniProt P22303) (P22303 whole entry): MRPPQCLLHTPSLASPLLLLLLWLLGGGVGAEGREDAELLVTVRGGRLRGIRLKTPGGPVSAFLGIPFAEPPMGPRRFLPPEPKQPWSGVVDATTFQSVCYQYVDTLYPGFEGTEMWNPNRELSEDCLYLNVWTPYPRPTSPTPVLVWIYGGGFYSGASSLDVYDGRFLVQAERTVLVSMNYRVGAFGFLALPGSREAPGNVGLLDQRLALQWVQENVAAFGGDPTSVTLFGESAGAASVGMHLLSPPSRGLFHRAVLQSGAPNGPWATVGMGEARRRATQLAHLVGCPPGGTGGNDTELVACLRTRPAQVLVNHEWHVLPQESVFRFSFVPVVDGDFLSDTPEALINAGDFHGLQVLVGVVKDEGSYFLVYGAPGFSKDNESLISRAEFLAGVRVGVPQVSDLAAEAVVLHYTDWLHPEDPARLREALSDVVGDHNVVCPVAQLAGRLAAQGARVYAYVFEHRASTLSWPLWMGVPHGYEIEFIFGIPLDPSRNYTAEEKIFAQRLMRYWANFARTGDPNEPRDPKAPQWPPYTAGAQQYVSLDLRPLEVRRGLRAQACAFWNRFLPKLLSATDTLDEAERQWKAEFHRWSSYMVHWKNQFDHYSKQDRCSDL
Sequence of Acetylcholinesterase (Electrophorus electricus, UniProt O42275) (O42275 whole entry): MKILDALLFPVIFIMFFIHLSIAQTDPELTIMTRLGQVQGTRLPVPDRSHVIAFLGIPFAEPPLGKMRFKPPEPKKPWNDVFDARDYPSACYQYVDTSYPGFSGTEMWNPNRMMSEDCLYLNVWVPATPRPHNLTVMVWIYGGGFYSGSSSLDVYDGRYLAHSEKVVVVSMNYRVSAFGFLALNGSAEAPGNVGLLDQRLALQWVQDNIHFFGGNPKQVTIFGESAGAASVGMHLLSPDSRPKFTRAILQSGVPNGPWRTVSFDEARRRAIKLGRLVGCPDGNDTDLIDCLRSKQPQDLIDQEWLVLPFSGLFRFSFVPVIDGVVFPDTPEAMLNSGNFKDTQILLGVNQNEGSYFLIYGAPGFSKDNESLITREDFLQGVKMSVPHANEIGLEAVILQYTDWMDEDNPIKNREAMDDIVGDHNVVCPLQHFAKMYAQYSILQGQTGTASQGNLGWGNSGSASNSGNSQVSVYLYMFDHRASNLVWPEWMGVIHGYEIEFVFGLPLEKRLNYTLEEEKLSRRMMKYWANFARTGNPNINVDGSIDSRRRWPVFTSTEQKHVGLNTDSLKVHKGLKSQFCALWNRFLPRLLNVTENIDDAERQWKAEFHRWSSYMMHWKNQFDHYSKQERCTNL

The IC50 is the point on the concentration scale where inhibition reaches its midpoint. Low readings indicate greater potency in that assay, high ones weaker potency in that assay. On to `CCN1C[C@]2(C)[C@H](CC=C3C[C@H]4C(=O)C[C@]5(C)[C@@H]([C@H](C)N(C)C)[C@H](O)C[C@@]5(C)[C@@H]4CC[C@H]32)N=C1C(C)C`, for which the IC50 against Acetylcholinesterase [1] was above 10000 nM; against Cholinesterase it was 3330 nM; against Acetylcholinesterase [2], above 10000 nM.
With `CC(C)C1=N[C@H]2CC[C@]34C[C@]35C(=O)C[C@]3(C)[C@@H]([C@H](C)N(C)CCCN6C(=O)c7ccccc7C6=O)[C@H](O)C[C@@]3(C)[C@@H]5CC[C@H]4[C@]2(C)CS1`, the 50% inhibitory concentration (IC50) was 14 nM on Acetylcholinesterase [1], 224 nM at Cholinesterase and 14 nM against Acetylcholinesterase [2].
Regarding `COc1cccc(CN(C)[C@@H](C)[C@H]2[C@H](O)C[C@@]3(C)[C@@H]4CC[C@H]5[C@]6(C)CSC(C(C)C)=N[C@H]6CC[C@@]56C[C@@]46C(=O)C[C@]23C)c1`, the IC50 worked out at 6 nM against Acetylcholinesterase [1], 477 nM against Cholinesterase and 3 nM against Acetylcholinesterase [2].
Regarding `COc1ccc(CN(C)[C@@H](C)[C@H]2[C@H](O)C[C@@]3(C)[C@@H]4CC[C@H]5[C@]6(C)CSC(C(C)C)=N[C@H]6CC[C@@]56C[C@@]46C(=O)C[C@]23C)cc1`, the IC50 worked out at 18 nM at Acetylcholinesterase [1], 217 nM against Cholinesterase and 9 nM at Acetylcholinesterase [2].
Take `CC(C)C1=N[C@H]2CC[C@]34C[C@]35C(=O)C[C@]3(C)[C@@H]([C@H](C)N(C)Cc6ccccc6C(F)(F)F)[C@H](O)C[C@@]3(C)[C@@H]5CC[C@H]4[C@]2(C)CS1`: the IC50 against Acetylcholinesterase [1] is 24 nM; against Cholinesterase, above 10000 nM; against Acetylcholinesterase [2], 11 nM.
In the case of `CC(C)C1=N[C@H]2CC[C@]34C[C@]35C(=O)C[C@]3(C)[C@@H]([C@H](C)N(C)Cc6cccc(C(F)(F)F)c6)[C@H](O)C[C@@]3(C)[C@@H]5CC[C@H]4[C@]2(C)CS1`, the IC50 on Acetylcholinesterase [1] is 9 nM; on Cholinesterase, above 10000 nM; against Acetylcholinesterase [2] it was 3 nM.
As for `CC(C)C1=N[C@H]2CC[C@]34C[C@]35C(=O)C[C@]3(C)[C@@H]([C@H](C)N(C)Cc6ccc(C(F)(F)F)cc6)[C@H](O)C[C@@]3(C)[C@@H]5CC[C@H]4[C@]2(C)CS1`, the IC50 is 7 nM against Acetylcholinesterase [1], above 10000 nM against Cholinesterase and 3 nM against Acetylcholinesterase [2].
As for `CC(C)C1=N[C@H]2CC[C@]34C[C@]35C(=O)C[C@]3(C)[C@@H]([C@H](C)N(C)CCN6C(=O)c7ccccc7C6=O)[C@H](O)C[C@@]3(C)[C@@H]5CC[C@H]4[C@]2(C)CS1`, the figures for the IC50 at Acetylcholinesterase [1], on Cholinesterase and against Acetylcholinesterase [2] were 24 nM, 653 nM and 70 nM, respectively.
With `CC(C)C1=N[C@H]2CC[C@]34C[C@]35C(=O)C[C@]3(C)[C@@H]([C@H](C)N(C)C)[C@H](O)C[C@@]3(C)[C@@H]5CC[C@H]4[C@]2(C)CS1`, the IC50 was found to be 38 nM on Acetylcholinesterase [1], 5370 nM against Cholinesterase and 60 nM at Acetylcholinesterase [2].
In the same order, the values of `CN[C@@H](C)[C@H]1[C@H](O)C[C@@]2(C)[C@@H]3CC[C@H]4[C@]5(C)CSC(C(C)C)=N[C@H]5CC[C@@]45C[C@@]35C(=O)C[C@]12C` are 45 nM, 1340 nM and 76 nM.
Turning to `CC(=O)N(C)[C@@H](C)[C@H]1[C@H](O)C[C@@]2(C)[C@@H]3CC[C@H]4[C@]5(C)CSC(C(C)C)=N[C@H]5CC[C@@]45C[C@@]35C(=O)C[C@]12C`, the concentration for half-maximal inhibition (IC50) is 139 nM against Acetylcholinesterase [1], above 10000 nM against Cholinesterase and 298 nM at Acetylcholinesterase [2].
As for `CC(C)C1=N[C@H]2CC[C@]34C[C@]35C(=O)C[C@]3(C)[C@@H]([C@H](C)N(C)C(=O)c6ccccc6)[C@H](O)C[C@@]3(C)[C@@H]5CC[C@H]4[C@]2(C)CS1`, the values for the IC50 against Acetylcholinesterase [1], at Cholinesterase and against Acetylcholinesterase [2] were 37 nM, above 1000 nM and 43 nM, respectively.
In the same order, the values of `CC(C)C1=N[C@H]2CC[C@]34C[C@]35C(=O)C[C@]3(C)[C@@H]([C@H](C)N(C)C(=O)OC(C)(C)C)[C@H](O)C[C@@]3(C)[C@@H]5CC[C@H]4[C@]2(C)CS1` are 186 nM, above 10000 nM and 159 nM.
As to `CC(C)C1=N[C@H]2CC[C@]34C[C@]35C(=O)C[C@]3(C)[C@@H]([C@H](C)N(C)Cc6ccccc6)[C@H](O)C[C@@]3(C)[C@@H]5CC[C@H]4[C@]2(C)CS1`, the IC50 was found to be 13 nM against Acetylcholinesterase [1], 554 nM on Cholinesterase and 7 nM at Acetylcholinesterase [2].
As for `CC(C)C1=N[C@H]2CC[C@]34C[C@]35C(=O)C[C@]3(C)[C@@H]([C@H](C)N(C)CCc6ccccc6)[C@H](O)C[C@@]3(C)[C@@H]5CC[C@H]4[C@]2(C)CS1`, the concentration for half-maximal inhibition (IC50) amounted to 14 nM at Acetylcholinesterase [1], 501 nM on Cholinesterase and 20 nM against Acetylcholinesterase [2].
As for `CC(C)C1=N[C@H]2CC[C@]34C[C@]35C(=O)C[C@]3(C)[C@@H]([C@H](C)N(C)CCCc6ccccc6)[C@H](O)C[C@@]3(C)[C@@H]5CC[C@H]4[C@]2(C)CS1`, the IC50 against Acetylcholinesterase [1] was 79 nM; at Cholinesterase, 1430 nM; at Acetylcholinesterase [2], 76 nM.
Consider `COc1ccccc1CN(C)[C@@H](C)[C@H]1[C@H](O)C[C@@]2(C)[C@@H]3CC[C@H]4[C@]5(C)CSC(C(C)C)=N[C@H]5CC[C@@]45C[C@@]35C(=O)C[C@]12C`, for which the IC50 on Acetylcholinesterase [1] came out at 12 nM; against Cholinesterase, 333 nM; against Acetylcholinesterase [2] it was 6 nM.
For `C[C@@H]([C@H]1[C@H](O)C[C@@]2(C)[C@@H]3CC[C@H]4[C@]5(C)COC(C(F)(F)F)=N[C@H]5CC[C@@]45C[C@@]35C(=O)C[C@]12C)N(C)C`, the concentration for half-maximal inhibition (IC50) against Acetylcholinesterase [1], against Cholinesterase and against Acetylcholinesterase [2] was above 10000 nM in each case.
In the case of `C[C@@H]([C@H]1[C@H](O)C[C@@]2(C)[C@@H]3CC[C@H]4[C@]5(C)COC(C(C)(C)F)=N[C@H]5CC[C@@]45C[C@@]35C(=O)C[C@]12C)N(C)C`, the concentration for half-maximal inhibition (IC50) against Acetylcholinesterase [1] is 336 nM; against Cholinesterase, above 10000 nM; on Acetylcholinesterase [2], 744 nM.
Turning to `C[C@@H]([C@H]1[C@H](O)C[C@@]2(C)[C@@H]3CC[C@H]4[C@]5(C)COC(C(F)(C(F)(F)F)C(F)(F)F)=N[C@H]5CC[C@@]45C[C@@]35C(=O)C[C@]12C)N(C)C`, the IC50 was 1700 nM against Acetylcholinesterase [1], above 10000 nM against Cholinesterase and 3000 nM at Acetylcholinesterase [2].
In the same order, the values of `CC(C)C1=N[C@H]2CC[C@]34C[C@]35C(=O)C[C@]3(C)[C@@H]([C@H](C)N(C)C)[C@H](O)C[C@@]3(C)[C@@H]5CC[C@H]4[C@]2(C)CN1C` are above 10000 nM, 2950 nM and above 10000 nM.
Take `CC(C)C1=N[C@H]2CC[C@]34C[C@]35C(=O)C[C@]3(C)[C@@H]([C@H](C)N(C)C)[C@H](O)C[C@@]3(C)[C@@H]5CC[C@H]4[C@]2(C)N1`: the values for the 50% inhibitory concentration (IC50) against Acetylcholinesterase [1], against Cholinesterase and against Acetylcholinesterase [2] were above 10000 nM, 7220 nM and above 10000 nM, respectively.
On to `CC(C)C1=N[C@H]2CC[C@]34C[C@]35C(=O)C[C@]3(C)[C@@H]([C@H](C)N(C)C)[C@H](O)C[C@@]3(C)[C@@H]5CC[C@H]4[C@]2(C)C=C1`, for which the 50% inhibitory concentration (IC50) at Acetylcholinesterase [1] stood at 16 nM; on Cholinesterase, 679 nM; at Acetylcholinesterase [2], 25 nM.
Regarding `CC(C)C1=N[C@H]2CC[C@]34C[C@]35C(=O)C[C@]3(C)[C@@H]([C@H](C)N(C)C)[C@H](O)C[C@@]3(C)[C@@H]5CC[C@H]4[C@]2(C)CC1`, the concentration for half-maximal inhibition (IC50) on Acetylcholinesterase [1] was 294 nM; on Cholinesterase, above 10000 nM; against Acetylcholinesterase [2], 618 nM.
With `CC(C)C1=N[C@H]2CC[C@]34C[C@]35C(=O)C[C@]3(C)[C@@H]([C@H](C)N(C)C)[C@H](O)C[C@@]3(C)[C@@H]5CC[C@H]4[C@]2(C)CN1`, the IC50 against Acetylcholinesterase [1] was above 10000 nM.

Source of the values: ChEMBL document CHEMBL1781893, “New potent human acetylcholinesterase inhibitors in the tetracyclic triterpene series with inhibitory potency on amyloid β aggregation” (Eur J Med Chem, 2011).
